Measurements reported in ChEMBL document CHEMBL4402510, “Caprazamycins: Promising lead structures acting on a novel antibacterial target MraY” (Eur J Med Chem, 2019).
pIC50: −log10 of the molar value. In brackets after ≈: the same amount, converted by molar mass.

Assays:
Bacillus subtilis = assay: Antibacterial activity against Bacillus subtilis PCI 219; type: functional
[1] = tested on: Mycobacterium tuberculosis; assay: Antibacterial activity against Mycobacterium tuberculosis H37Rv; type: functional
Staphylococcus aureus [2] = assay: Antibacterial activity against methicillin resistant Staphylococcus aureus MS16526; type: functional
Staphylococcus aureus [3] = assay: Antibacterial activity against Staphylococcus aureus FDA 209P; type: functional
[4] = tested on: Mycobacterium avium subsp. paratuberculosis; assay: Antibacterial activity against Mycobacterium avium subsp. paratuberculosis ATCC 43015; type: functional
[5] = tested on: Mycolicibacterium smegmatis; assay: Antibacterial activity against Mycobacterium smegmatis ATCC 607; type: functional
Mycolicibacterium phlei = assay: Antibacterial activity against Mycobacterium phlei; type: functional
Mycolicibacterium vaccae = assay: Antibacterial activity against Mycobacterium vaccae ATCC 15483; type: functional
Staphylococcus aureus [6] = assay: Antibacterial activity against methicillin resistant Staphylococcus aureus No. 5; type: functional
Escherichia coli [7] = assay: Antibacterial activity against Escherichia coli K-12; type: functional
[8] = Antibacterial activity against Mycobacterium avium subsp. avium ATCC 25291; type: functional
[9] = tested on: Mycobacterium tuberculosis; assay: Antibacterial activity against Mycobacterium tuberculosis JCM 6384; type: functional
[10] = tested on: Mycobacterium tuberculosis; assay: Antibacterial activity against Mycobacterium tuberculosis Kurono; type: functional
Escherichia coli [11] = assay: Antibacterial activity against Escherichia coli expressing MraY; type: functional, organism-based

SMILES: CCCCCCCCCCCCCCc1ccc(NC(=O)C2=CCN(C)[C@@H]([C@H](O[C@@H]3O[C@H](CN)[C@@H](O)[C@H]3O)[C@H]3O[C@@H](n4ccc(=O)[nH]c4=O)[C@H](O)[C@@H]3O)C(=O)N2C)cc1
- MIC (Bacillus subtilis): > 100 µg/mL
- MIC [1]: 3.13 µg/mL (≈ 3.78 µM)
- MIC (Staphylococcus aureus [2]): 0.39 µg/mL (≈ 0.47 µM)
- MIC (Staphylococcus aureus [3]): 12.5 µg/mL (≈ 15.1 µM)
- MIC [4]: 0.39 µg/mL (≈ 0.47 µM)
- MIC [5]: 6.25 µg/mL (≈ 7.54 µM)
- MIC (Mycolicibacterium phlei): 3.13 µg/mL (≈ 3.78 µM)
- MIC (Mycolicibacterium vaccae): 6.25 µg/mL (≈ 7.54 µM)
- MIC (Staphylococcus aureus [6]): 12.5 µg/mL (≈ 15.1 µM)
- MIC (Escherichia coli [7]): > 100 µg/mL
- MIC [8]: 6.25 µg/mL (≈ 7.54 µM)
- MIC [9]: 0.78 µg/mL (≈ 0.941 µM)
- MIC [10]: 3.13 µg/mL (≈ 3.78 µM)

SMILES: NC[C@H]1O[C@@H](OC[C@H]2O[C@@H](n3ccc(=O)[nH]c3=O)C[C@@H]2O)[C@H](O)[C@@H]1O
- pIC50 (Escherichia coli [11]): 4.10

SMILES: CCCCCCCOc1ccc(NC(=O)C2=CCN(C)[C@@H]([C@H](O[C@@H]3O[C@H](CN)[C@@H](O)[C@H]3O)[C@H]3O[C@@H](n4ccc(=O)[nH]c4=O)[C@H](O)[C@@H]3O)C(=O)N2C)cc1
- MIC (Bacillus subtilis): 50 µg/mL (≈ 67 µM)
- MIC [1]: 0.78 µg/mL (≈ 1.04 µM)
- MIC (Staphylococcus aureus [2]): < 0.2 µg/mL
- MIC (Staphylococcus aureus [3]): 25 µg/mL (≈ 33.5 µM)
- MIC [4]: 0.2 µg/mL (≈ 0.268 µM)
- MIC [5]: 0.78 µg/mL (≈ 1.04 µM)
- MIC (Mycolicibacterium phlei): 3.13 µg/mL (≈ 4.19 µM)
- MIC (Mycolicibacterium vaccae): 6.25 µg/mL (≈ 8.37 µM)
- MIC (Staphylococcus aureus [6]): 25 µg/mL (≈ 33.5 µM)
- MIC (Escherichia coli [7]): 3.13 µg/mL (≈ 4.19 µM)
- MIC [8]: 0.78 µg/mL (≈ 1.04 µM)
- MIC [9]: 0.1 µg/mL (≈ 0.134 µM)
- MIC [10]: 0.78 µg/mL (≈ 1.04 µM)

SMILES: CCCCCCCCCCCCCCCC(=O)O[C@H]1CN(C)[C@@H]([C@@H](C)O[C@@H]2O[C@H](CN)[C@@H](O)[C@H]2O)C(=O)N(C)[C@@H]1C(=O)O
- MIC50 (Escherichia coli [11]): > 100 µg/mL

SMILES: CC/C=C/CCCCCCCCCCOC(=O)C1=CCN(C)[C@@H]([C@H](O[C@@H]2O[C@H](CN)[C@@H](O)[C@H]2O)[C@H]2O[C@@H](n3ccc(=O)[nH]c3=O)[C@H](O)[C@@H]2O)C(=O)N1C
- MIC [1]: 12.5 µg/mL (≈ 16.6 µM)
- MIC (Staphylococcus aureus [2]): 25 µg/mL (≈ 33.3 µM)
- MIC (Staphylococcus aureus [3]): 0.78 µg/mL (≈ 1.04 µM)
- MIC [4]: 6.25 µg/mL (≈ 8.31 µM)
- MIC [5]: 6.25 µg/mL (≈ 8.31 µM)
- MIC (Mycolicibacterium phlei): 12.5 µg/mL (≈ 16.6 µM)
- MIC (Mycolicibacterium vaccae): 25 µg/mL (≈ 33.3 µM)
- MIC (Staphylococcus aureus [6]): > 100 µg/mL
- MIC [8]: 25 µg/mL (≈ 33.3 µM)
- MIC [9]: 12.5 µg/mL (≈ 16.6 µM)
- MIC [10]: 6.25 µg/mL (≈ 8.31 µM)

SMILES: CCCCCCCCCCCCCCCCCCCCCNC(=O)C1=CCN(C)[C@@H]([C@H](O[C@@H]2O[C@H](CN)[C@@H](O)[C@H]2O)[C@H]2O[C@@H](n3ccc(=O)[nH]c3=O)[C@H](O)[C@@H]2O)C(=O)N1C
- MIC [1]: 1.56 µg/mL (≈ 1.83 µM)
- MIC (Staphylococcus aureus [2]): > 100 µg/mL
- MIC (Staphylococcus aureus [3]): 1.56 µg/mL (≈ 1.83 µM)
- MIC [4]: > 100 µg/mL
- MIC [5]: 6.25 µg/mL (≈ 7.34 µM)
- MIC (Mycolicibacterium phlei): 12.5 µg/mL (≈ 14.7 µM)
- MIC (Mycolicibacterium vaccae): 12.5 µg/mL (≈ 14.7 µM)
- MIC (Staphylococcus aureus [6]): > 100 µg/mL
- MIC [8]: 50 µg/mL (≈ 58.7 µM)
- MIC [9]: > 100 µg/mL
- MIC [10]: 0.78 µg/mL (≈ 0.916 µM)

SMILES: CCCCCCCCCCOC(=O)C1=CCN(C)[C@@H]([C@H](O[C@@H]2O[C@H](CN)[C@@H](O)[C@H]2O)[C@H]2O[C@@H](n3ccc(=O)[nH]c3=O)[C@H](O)[C@@H]2O)C(=O)N1C
- MIC [1]: 12.5 µg/mL (≈ 17.9 µM)
- MIC (Staphylococcus aureus [3]): > 100 µg/mL
- MIC [4]: 12.5 µg/mL (≈ 17.9 µM)
- MIC [5]: 50 µg/mL (≈ 71.7 µM)
- MIC (Mycolicibacterium phlei): > 100 µg/mL
- MIC (Mycolicibacterium vaccae): 0.78 µg/mL (≈ 1.12 µM)
- MIC [8]: 12.5 µg/mL (≈ 17.9 µM)
- MIC [9]: 50 µg/mL (≈ 71.7 µM)
- MIC [10]: 12.5 µg/mL (≈ 17.9 µM)

SMILES: CCCCCCCC/C=C/CCCCCCCCNC(=O)C1=CCN(C)[C@@H]([C@H](O[C@@H]2O[C@H](CN)[C@@H](O)[C@H]2O)[C@H]2O[C@@H](n3ccc(=O)[nH]c3=O)[C@H](O)[C@@H]2O)C(=O)N1C
- MIC (Bacillus subtilis): > 100 µg/mL
- MIC [1]: 3.13 µg/mL (≈ 3.88 µM)
- MIC (Staphylococcus aureus [2]): 0.78 µg/mL (≈ 0.967 µM)
- MIC (Staphylococcus aureus [3]): 6.25 µg/mL (≈ 7.74 µM)
- MIC [4]: 0.78 µg/mL (≈ 0.967 µM)
- MIC [5]: 1.56 µg/mL (≈ 1.93 µM)
- MIC (Mycolicibacterium phlei): 1.56 µg/mL (≈ 1.93 µM)
- MIC (Mycolicibacterium vaccae): 1.56 µg/mL (≈ 1.93 µM)
- MIC (Staphylococcus aureus [6]): 6.25 µg/mL (≈ 7.74 µM)
- MIC (Escherichia coli [7]): > 100 µg/mL
- MIC [8]: 6.25 µg/mL (≈ 7.74 µM)
- MIC [9]: 1.56 µg/mL (≈ 1.93 µM)
- MIC [10]: 3.13 µg/mL (≈ 3.88 µM)
